The target in data set [1] is Tyrosine-protein kinase Fyn (Homo sapiens, UniProt P06241). The data set is described as follows: Inhibitory activity against fyn.
Data set [2] concerns the target T1, Tyrosine-protein kinase Lck (Homo sapiens, UniProt P06239). Put plainly: Inhibitory activity against lck.
Data set [3] can be described thus: Volume of distribution in mouse. The class given is ADME, organism-based. The settings on record: in vivo, read-out: Vdss.
Data set [4] relates to Rattus norvegicus. The data set is described as follows: Plasma concentration in rat at 10 mg/kg/day. The class given is ADME, organism-based. The note with it: in vivo.
The target of data set [5] is Proto-oncogene tyrosine-protein kinase LCK (Mus musculus, UniProt P06240). Put plainly: Inhibition of TCR stimulated IL2 production in mice administered orally. The class given is functional.
In data set [6] the target is Tyrosine-protein kinase SYK (Homo sapiens, UniProt P43405). The data set is described as follows: Inhibitory activity against Syk.
The next data set addresses Angiopoietin-1 receptor (Homo sapiens, UniProt Q02763). Put plainly: Inhibitory activity against tie2.
Data set [7] has as its target Mitogen-activated protein kinase kinase kinase 8 (Homo sapiens, UniProt P41279). Put plainly: Inhibitory activity against COT.
Data set [8] can be described thus: Cmax in rat. The settings on record: in vivo. The class given is ADME, organism-based.
Data set [9] concerns the target T1, Tyrosine-protein kinase Lck. Put plainly: Inhibitory activity against anti-CD3 mAb-induced IL2 production in human whole blood. The class given is functional, tissue-based.
For data set [10], the target named is T2, Tyrosine-protein kinase ZAP-70 (Homo sapiens, UniProt P43403).
T2 sequence (P43403 whole entry): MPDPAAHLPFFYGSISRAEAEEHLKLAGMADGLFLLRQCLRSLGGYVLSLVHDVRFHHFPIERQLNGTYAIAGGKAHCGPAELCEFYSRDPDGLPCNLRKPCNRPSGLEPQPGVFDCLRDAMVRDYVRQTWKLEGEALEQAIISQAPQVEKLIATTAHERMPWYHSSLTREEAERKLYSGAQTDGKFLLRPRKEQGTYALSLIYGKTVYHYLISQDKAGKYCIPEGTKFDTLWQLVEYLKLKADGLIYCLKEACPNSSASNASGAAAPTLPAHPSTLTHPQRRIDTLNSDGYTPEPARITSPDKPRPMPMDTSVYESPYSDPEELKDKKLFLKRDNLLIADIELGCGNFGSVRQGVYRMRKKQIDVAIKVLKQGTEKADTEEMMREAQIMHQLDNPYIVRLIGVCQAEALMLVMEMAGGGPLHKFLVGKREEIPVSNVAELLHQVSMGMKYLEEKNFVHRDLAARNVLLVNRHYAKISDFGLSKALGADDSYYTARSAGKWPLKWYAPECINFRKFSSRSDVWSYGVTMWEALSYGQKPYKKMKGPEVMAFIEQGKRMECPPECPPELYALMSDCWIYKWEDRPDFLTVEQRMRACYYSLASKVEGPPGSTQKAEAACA
The data set is described as follows: Inhibitory activity against ZAP70.

Data set [11] is described as follows: Half life in mouse. The class given is ADME, organism-based. The settings on record: in vivo.
Data set [12] is described as follows: Tmax in mouse. The class given is ADME, organism-based. The settings on record: in vivo.
For data set [13], the system named is Rattus norvegicus. Put plainly: Plasma concentration in rat at 5 mg/kg/day. The class given is ADME, organism-based. The settings on record: in vivo.
Data set [14] can be described thus: Oral bioavailability in mouse. The class given is ADME, organism-based. The note with it: in vivo.
Data set [15] in a line: Tmax in rat. The class given is ADME, organism-based. The settings on record: in vivo.
A short description of data set [16]: Volume of distribution in rat. The class given is ADME, organism-based. The settings on record: in vivo, read-out: Vdss.
Data set [17] concerns the target Tyrosine-protein kinase Lyn (Homo sapiens, UniProt P07948). Put plainly: Inhibitory activity against lyn.
The nature of data set [18]: Oral bioavailability in rat. The class given is ADME, organism-based. The note with it: in vivo.
Data set [19] can be described thus: Half life in rat. The class given is ADME, organism-based. The note with it: in vivo.
Data set [20] in a line: Plasma clearance in mouse. The class given is ADME, organism-based.
Data set [21] can be described thus: Cmax in mouse. The note with it: in vivo. The class given is ADME, organism-based.
For data set [22], the species on record is Rattus norvegicus. The data set is described as follows: Plasma concentration in rat at […]. The class given is ADME, organism-based. The note with it: in vivo.
Data set [23] concerns the target Tyrosine-protein kinase Fgr (Homo sapiens, UniProt P09769). The data set is described as follows: Inhibitory activity against fgr.
A short description of data set [24]: Plasma clearance in rat. The class given is ADME, organism-based.
The target in data set [25] is Proto-oncogene tyrosine-protein kinase LCK (Mus musculus) (UniProt P06240).
Data set [26] concerns the target Proto-oncogene tyrosine-protein kinase Src (Homo sapiens, UniProt P12931). Put plainly: Inhibitory activity against src.

Molecules are shown by their SMILES. Bounds are passed on as bounds.

As a reminder, the IC50 is the point on the concentration scale where inhibition reaches its midpoint. Lower therefore signals greater potency. The term EC50 denotes the concentration at which the effect is half-maximal. As usually defined, the Cmax is the peak of the concentration-time curve. Broadly, the half-life is the time in which the quantity being followed falls by half. A lower half-life goes with rapid decline. What is called Tmax is the time from dosing to the highest level. What is called bioavailability is dose-corrected exposure relative to a reference, in per cent. Low readings indicate little systemic uptake, high ones much systemic uptake. By clearance is commonly meant a measure of how efficiently the substance is removed, as volume per time.

Sequence of Tyrosine-protein kinase Fyn (P06241 whole entry): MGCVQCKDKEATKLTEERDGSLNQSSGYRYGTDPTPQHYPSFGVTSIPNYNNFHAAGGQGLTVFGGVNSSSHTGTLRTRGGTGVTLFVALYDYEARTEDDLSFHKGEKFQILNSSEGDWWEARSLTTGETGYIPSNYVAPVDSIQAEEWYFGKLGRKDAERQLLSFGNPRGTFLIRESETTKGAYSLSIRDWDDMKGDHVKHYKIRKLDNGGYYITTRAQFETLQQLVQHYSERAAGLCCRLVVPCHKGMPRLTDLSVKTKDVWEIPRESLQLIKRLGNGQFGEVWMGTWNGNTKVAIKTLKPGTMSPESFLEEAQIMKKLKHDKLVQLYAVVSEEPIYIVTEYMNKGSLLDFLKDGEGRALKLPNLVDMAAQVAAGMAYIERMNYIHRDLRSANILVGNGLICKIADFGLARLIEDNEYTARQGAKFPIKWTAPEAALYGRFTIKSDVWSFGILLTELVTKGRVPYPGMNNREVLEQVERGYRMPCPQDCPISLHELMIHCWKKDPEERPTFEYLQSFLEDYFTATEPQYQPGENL
T1 sequence (P06239 whole entry): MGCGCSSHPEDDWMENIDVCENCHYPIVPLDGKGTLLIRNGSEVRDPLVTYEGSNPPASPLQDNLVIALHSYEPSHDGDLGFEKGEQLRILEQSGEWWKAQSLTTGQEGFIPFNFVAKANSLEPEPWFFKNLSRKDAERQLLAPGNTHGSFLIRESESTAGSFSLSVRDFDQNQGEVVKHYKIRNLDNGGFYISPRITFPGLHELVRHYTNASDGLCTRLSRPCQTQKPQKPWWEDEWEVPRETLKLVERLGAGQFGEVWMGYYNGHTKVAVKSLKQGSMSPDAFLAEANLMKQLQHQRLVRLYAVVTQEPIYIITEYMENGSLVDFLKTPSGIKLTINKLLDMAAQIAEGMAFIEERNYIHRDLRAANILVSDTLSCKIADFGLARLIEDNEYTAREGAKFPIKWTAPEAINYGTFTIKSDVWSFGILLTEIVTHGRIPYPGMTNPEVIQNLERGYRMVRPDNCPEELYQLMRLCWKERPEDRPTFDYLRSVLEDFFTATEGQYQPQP
Sequence of Proto-oncogene tyrosine-protein kinase LCK (Mus musculus) (P06240 2-509 limits assumed): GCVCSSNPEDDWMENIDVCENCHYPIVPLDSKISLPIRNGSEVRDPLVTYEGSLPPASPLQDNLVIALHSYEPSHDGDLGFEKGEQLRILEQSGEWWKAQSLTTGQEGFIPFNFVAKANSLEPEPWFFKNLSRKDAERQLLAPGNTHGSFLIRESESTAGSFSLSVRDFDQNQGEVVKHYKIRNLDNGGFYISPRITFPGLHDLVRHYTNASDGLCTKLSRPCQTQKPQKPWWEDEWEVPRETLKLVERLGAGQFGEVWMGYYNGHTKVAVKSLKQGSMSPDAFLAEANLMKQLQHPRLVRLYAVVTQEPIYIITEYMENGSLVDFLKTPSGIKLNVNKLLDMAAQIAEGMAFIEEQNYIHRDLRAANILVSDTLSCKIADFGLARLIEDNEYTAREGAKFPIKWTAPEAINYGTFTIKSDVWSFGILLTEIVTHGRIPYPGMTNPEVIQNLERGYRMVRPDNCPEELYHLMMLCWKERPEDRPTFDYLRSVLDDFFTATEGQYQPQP
Sequence of Proto-oncogene tyrosine-protein kinase LCK (P06240 whole entry): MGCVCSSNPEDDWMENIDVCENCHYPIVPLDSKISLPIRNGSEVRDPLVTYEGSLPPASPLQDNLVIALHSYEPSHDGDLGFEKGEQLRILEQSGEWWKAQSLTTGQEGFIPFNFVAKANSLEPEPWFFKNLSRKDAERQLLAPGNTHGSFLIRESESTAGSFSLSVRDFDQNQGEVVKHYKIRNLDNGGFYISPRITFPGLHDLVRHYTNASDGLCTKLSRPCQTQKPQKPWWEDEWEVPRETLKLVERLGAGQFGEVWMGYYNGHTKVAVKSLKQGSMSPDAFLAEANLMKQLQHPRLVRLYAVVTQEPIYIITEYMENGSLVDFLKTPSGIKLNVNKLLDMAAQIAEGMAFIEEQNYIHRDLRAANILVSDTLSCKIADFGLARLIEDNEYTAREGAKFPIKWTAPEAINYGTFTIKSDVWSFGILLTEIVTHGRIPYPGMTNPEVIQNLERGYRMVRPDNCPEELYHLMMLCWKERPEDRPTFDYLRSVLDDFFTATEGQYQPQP
Sequence of Mitogen-activated protein kinase kinase kinase 8 (P41279 whole entry): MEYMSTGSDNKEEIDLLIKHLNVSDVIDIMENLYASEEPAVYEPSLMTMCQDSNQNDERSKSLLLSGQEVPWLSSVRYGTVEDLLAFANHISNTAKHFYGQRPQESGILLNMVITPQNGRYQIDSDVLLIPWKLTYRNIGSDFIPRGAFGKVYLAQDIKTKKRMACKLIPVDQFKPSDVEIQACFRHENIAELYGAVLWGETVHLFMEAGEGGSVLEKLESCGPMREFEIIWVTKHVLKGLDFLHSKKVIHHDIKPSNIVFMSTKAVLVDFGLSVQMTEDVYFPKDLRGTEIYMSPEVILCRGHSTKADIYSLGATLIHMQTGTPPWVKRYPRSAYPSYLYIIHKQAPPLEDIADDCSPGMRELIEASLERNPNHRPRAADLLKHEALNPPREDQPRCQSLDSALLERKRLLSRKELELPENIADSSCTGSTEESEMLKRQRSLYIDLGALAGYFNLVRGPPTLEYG
Sequence of Angiopoietin-1 receptor (Q02763 whole entry): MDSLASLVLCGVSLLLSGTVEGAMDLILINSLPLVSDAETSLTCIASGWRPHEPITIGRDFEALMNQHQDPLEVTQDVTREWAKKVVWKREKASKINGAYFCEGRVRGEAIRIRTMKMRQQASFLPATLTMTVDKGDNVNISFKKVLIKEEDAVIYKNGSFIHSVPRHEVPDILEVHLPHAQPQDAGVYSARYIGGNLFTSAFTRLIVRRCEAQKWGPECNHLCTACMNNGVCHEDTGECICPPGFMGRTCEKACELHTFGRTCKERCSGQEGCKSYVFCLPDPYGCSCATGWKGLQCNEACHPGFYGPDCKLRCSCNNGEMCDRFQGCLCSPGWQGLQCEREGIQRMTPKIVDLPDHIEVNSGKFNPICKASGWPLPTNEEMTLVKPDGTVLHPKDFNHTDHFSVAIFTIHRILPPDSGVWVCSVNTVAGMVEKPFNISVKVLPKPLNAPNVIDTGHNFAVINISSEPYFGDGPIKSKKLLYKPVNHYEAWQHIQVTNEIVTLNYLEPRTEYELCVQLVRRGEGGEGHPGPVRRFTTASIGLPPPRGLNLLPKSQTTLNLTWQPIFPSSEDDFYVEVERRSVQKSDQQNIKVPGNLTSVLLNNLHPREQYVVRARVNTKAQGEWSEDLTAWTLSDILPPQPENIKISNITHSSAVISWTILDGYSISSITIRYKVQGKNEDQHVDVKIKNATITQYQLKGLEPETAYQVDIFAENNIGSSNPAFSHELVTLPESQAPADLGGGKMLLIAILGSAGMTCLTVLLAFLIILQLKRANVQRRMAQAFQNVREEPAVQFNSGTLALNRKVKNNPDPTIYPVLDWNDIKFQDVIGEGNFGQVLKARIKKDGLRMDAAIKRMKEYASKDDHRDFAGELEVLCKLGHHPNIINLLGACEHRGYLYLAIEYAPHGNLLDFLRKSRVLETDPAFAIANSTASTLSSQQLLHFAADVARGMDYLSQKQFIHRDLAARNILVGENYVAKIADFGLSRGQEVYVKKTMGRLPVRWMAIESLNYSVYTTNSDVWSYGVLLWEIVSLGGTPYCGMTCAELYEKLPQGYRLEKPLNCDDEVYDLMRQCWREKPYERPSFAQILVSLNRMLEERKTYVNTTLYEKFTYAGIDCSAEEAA
Sequence of Tyrosine-protein kinase Lyn (P07948 whole entry): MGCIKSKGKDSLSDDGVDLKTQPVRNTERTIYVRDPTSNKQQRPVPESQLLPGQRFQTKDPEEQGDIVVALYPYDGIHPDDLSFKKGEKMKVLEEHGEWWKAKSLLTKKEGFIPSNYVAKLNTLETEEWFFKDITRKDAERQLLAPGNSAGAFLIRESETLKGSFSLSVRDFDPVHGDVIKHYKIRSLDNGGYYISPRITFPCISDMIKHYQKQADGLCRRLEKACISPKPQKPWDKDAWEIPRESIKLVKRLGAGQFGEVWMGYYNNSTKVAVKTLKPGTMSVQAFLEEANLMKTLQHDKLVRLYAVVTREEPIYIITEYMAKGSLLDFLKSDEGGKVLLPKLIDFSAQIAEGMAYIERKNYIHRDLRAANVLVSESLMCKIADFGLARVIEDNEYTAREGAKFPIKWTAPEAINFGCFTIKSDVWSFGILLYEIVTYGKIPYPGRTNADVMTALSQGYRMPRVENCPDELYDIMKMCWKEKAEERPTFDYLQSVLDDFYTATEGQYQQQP
Sequence of Proto-oncogene tyrosine-protein kinase Src (P12931 2-536 limits assumed): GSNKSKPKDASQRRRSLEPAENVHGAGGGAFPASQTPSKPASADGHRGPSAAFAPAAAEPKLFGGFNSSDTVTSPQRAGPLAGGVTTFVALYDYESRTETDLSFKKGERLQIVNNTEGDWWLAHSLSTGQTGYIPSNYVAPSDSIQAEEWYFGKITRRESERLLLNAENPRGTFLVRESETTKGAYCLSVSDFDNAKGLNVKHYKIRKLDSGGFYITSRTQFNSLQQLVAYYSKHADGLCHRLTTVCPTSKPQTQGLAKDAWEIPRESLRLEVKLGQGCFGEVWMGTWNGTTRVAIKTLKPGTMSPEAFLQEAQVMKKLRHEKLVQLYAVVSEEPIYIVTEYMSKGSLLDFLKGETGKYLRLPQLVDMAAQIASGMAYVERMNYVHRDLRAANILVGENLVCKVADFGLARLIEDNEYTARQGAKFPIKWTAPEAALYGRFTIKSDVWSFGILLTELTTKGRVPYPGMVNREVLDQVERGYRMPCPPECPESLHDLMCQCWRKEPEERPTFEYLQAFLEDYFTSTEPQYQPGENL

For `COc1cc(-c2nn(C3CCN(C4CCOCC4)CC3)c3ncnc(N)c23)ccc1NC(=O)c1cccc(O)c1`, the IC50 in [1] was greater than 50000 nM; in data set [2], 23200 nM.

As for `COc1cc(-c2nn([C@H]3CC[C@H](N4CCN(C(C)=O)CC4)CC3)c3ncnc(N)c23)ccc1NC(=O)c1cc2ccccc2n1C`, the values for the Vd in data set [3] and in [16] were 10.3 L/kg and 1.2 L/kg, respectively. The results for the concentration in the data set with Rattus norvegicus [4], in the data set on Rattus norvegicus [13] and in the data set listed under Rattus norvegicus [22] were 2900 nM, 1060 nM and 350 nM, respectively. The compound further displayed an EC50 in data set [5] of 78 nM. The IC50 in data set [6] was greater than 25000 nM; against Angiopoietin-1 receptor, greater than 50000 nM; in data set [7], greater than 25000 nM; in data set [9] it was 80 nM; in [10], greater than 25000 nM; in data set [2], 147 nM. The IC50 in [17] was 1180 nM; in data set [23] it was 14100 nM. Further, the Cmax in data set [8] is 2080 ng/mL; in [21], 387 ng/mL. Further, the half-life is 4.7 h in data set [11] and 4.1 h in data set [19]. Moreover, the results for the Tmax in data set [12] and in [15] were 1 h and 4.7 h, respectively. The figures for the bioavailability in data set [14] and in [18] were 27% and 52%, respectively. The clearance in data set [20] was 25 mL/min/kg; in data set [24] it was 3.33 mL/min/kg.

Turning to `COc1cc(-c2nn(C3CCN(C4CCOCC4)CC3)c3ncnc(N)c23)ccc1NC(=O)c1cc2ccccc2n1C`, the IC50 in [1] was greater than 50000 nM; in [9], 20 nM; in [2], 107 nM. This compound also showed a half-life in data set [11] of 3.1 h. Besides, the ED90 in data set [25] came out at 15.5 mg/kg. This compound also came in with a bioavailability in data set [14] of 93%.

For `COc1cc(-c2nn(C3CCN(Cc4ccccc4)CC3)c3ncnc(N)c23)ccc1NC(=O)c1ccc(C(F)(F)F)cc1F`, the IC50 is greater than 50000 nM in data set [1], 540 nM in data set [9] and 341 nM in data set [2].

Take `COc1cc(-c2nn(C3CCN(C4CCOCC4)CC3)c3ncnc(N)c23)ccc1NC(=O)c1nc2ccccc2n1C`: the figures for the IC50 in data set [1], in data set [9] and in [2] were greater than 50000 nM, 54 nM and 318 nM, respectively.

Regarding `COc1cc(-c2nn(C3CCN(C4CCOCC4)CC3)c3ncnc(N)c23)ccc1NC(=O)c1cc2cc(C(N)=O)ccc2n1C`, the IC50 in data set [1] and in data set [2] was greater than 50000 nM in each case.

As for `COc1cc(-c2nn(C3CCN(C4CCOCC4)CC3)c3ncnc(N)c23)ccc1NC(=O)c1cc2cc(Cl)ccc2n1C`, the IC50 came out at 13600 nM in data set [1], 13 nM in [9] and 54 nM in data set [2].

As to `COc1cc(-c2nn(C3CCN(C4CCOCC4)CC3)c3ncnc(N)c23)ccc1NC(=O)c1cc2cc(C#N)ccc2n1C`, the IC50 in data set [1] came to 32500 nM; in data set [2] it was 3480 nM.

As for `COc1cc(-c2nn(C3CCN(C)CC3)c3ncnc(N)c23)ccc1NC(=O)c1ccc(C(F)(F)F)cc1F`, the IC50 in data set [1] is greater than 50000 nM; in data set [9], 30 nM; in data set [2], 106 nM.

With `COc1cc(-c2nn(C3CCN(C4CCOCC4)CC3)c3ncnc(N)c23)ccc1NC(=O)c1ccc(C(F)(F)F)cc1F`, the IC50 in data set [1] was greater than 50000 nM; in [9] it was 40 nM; in data set [2] it was 102 nM.

On to `COc1cc(-c2nn(C3CCN(C4CCN(C(C)=O)CC4)CC3)c3ncnc(N)c23)ccc1NC(=O)c1cc2ccccc2n1C`, for which the IC50 is no less than 50000 nM in data set [1], 74 nM in data set [2] and 17200 nM in data set [26]. Moreover, in data set [25], the ED90 is 19 mg/kg.

Turning to `COc1cc(-c2nn(C3CCN(C4CCOCC4)CC3)c3ncnc(N)c23)ccc1NC(=O)c1cc(O)c2ccccc2n1`, the IC50 was greater than 50000 nM in data set [1] and 9180 nM in data set [2].

With `COc1cc(-c2nn(C3CCN(C4CCN(C(C)=O)CC4)CC3)c3ncnc(N)c23)ccc1NC(=O)c1ccc(C(F)(F)F)cc1F`, the IC50 in data set [1] was greater than 50000 nM; in [9], 30 nM; in data set [2] it was 93 nM.

`COc1cc(-c2nn(C3CCN(C4CCOCC4)CC3)c3ncnc(N)c23)ccc1NC(=O)c1ccc(OC(F)(F)F)cc1`: the results for the IC50 in [1] and in data set [2] were greater than 50000 nM and 2350 nM, respectively.

Turning to `COc1cc(-c2nn(C3CCN(C4CCN(C)CC4)CC3)c3ncnc(N)c23)ccc1NC(=O)c1ccc(C(F)(F)F)cc1F`, the IC50 in data set [1] came to 1070 nM; in [9] it was 20 nM; in data set [2], 23 nM.

As to `COc1cc(-c2nn(C3CCN(C4CCOCC4)CC3)c3ncnc(N)c23)ccc1NC(=O)c1ccc(C)cc1`, the IC50 was greater than 50000 nM in [1] and 8960 nM in data set [2].

`COc1cc(-c2nn(C3CCN(C4CCOCC4)CC3)c3ncnc(N)c23)ccc1NC(=O)c1ccc(N(C)C)cc1`: the IC50 was greater than 50000 nM in data set [1], 35 nM in data set [9] and 106 nM in data set [2].

Consider `COc1cc(-c2nn(C3CCNCC3)c3ncnc(N)c23)ccc1NC(=O)c1ccc(C(F)(F)F)cc1F`, for which the IC50 in data set [1] is greater than 50000 nM; in data set [9] it was 50 nM; in data set [2] it was 80 nM.

Source of the values: ChEMBL document CHEMBL1148543, “Discovery of A-770041, a src-family selective orally active lck inhibitor that prevents organ allograft rejection” (Bioorg Med Chem Lett, 2006).
